Values quoted from earlier work in patent US20030175210A1, “Individualization of therapy with anxiolitics” (McGill University, priority 2001, published 2003).

Settings: in vivo

SMILES: O=C1Nc2ccc(Cl)cc2C(c2ccccc2Cl)=NC1O (stereo not shown) [Lorazepam]
- half-life: 10 to 15 h
